In PubChem BioAssay (NCI):
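Cells were grown in 96-well plates and exposed to each compound for 48 hours at five concentrations; endpoints were interpolated linearly between bracketing concentrations, or set to the highest concentration if not reached. GI50: concentration for 50% inhibition of growth. Definition used: TGI = concentration required for complete inhibition of growth.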

What was measured:
Assay in all cases: NCI-60 cell line screen, 48 h
[1] = tested on: RPMI-8226 leukemia
[2] = tested on: SW-620 colon
[3] = tested on: HCC-2998 colon
[4] = tested on: NCI-H460 lung
[5] = tested on: DU-145 prostate
[6] = tested on: CCRF-CEM leukemia
[7] = tested on: COLO 205 colon
[8] = tested on: SK-OV-3 ovarian
[9] = tested on: SNB-19 CNS
[10] = tested on: OVCAR-4 ovarian

SMILES | GI50 [1] [µM] | TGI [1] [µM] | GI50 [2] [µM] | TGI [2] [µM] | GI50 [3] [µM] | TGI [3] [µM] | GI50 [4] [µM] | TGI [4] [µM] | GI50 [5] [µM] | TGI [5] [µM] | GI50 [6] [µM] | TGI [6] [µM] | GI50 [7] [µM] | TGI [7] [µM] | GI50 [8] [µM] | TGI [8] [µM] | GI50 [9] [µM] | TGI [9] [µM] | TGI [10] [µM] | GI50 [10] [µM]
O=C(CNc1ncco1)Nc1ccc(S(=O)(=O)c2ccc(NC(=O)CNc3ncco3)cc2)cc1 | 1.11 | 3.01 | 1.75 | 4.13 | 3.44 | 16.4 | 2.02 | 4.29 | 4.79 | 16.4 | 1.08 | 5.91 | 1.75 | 3.55 | 10.5 | 24.1 | 2.88 | 12.8 |  | 
Cc1ccc(NC(=O)C2C(=O)N(c3ccc(C)c(C)c3)C(=O)/C2=N\NC(N)=S)cc1C (stereo unspecified) |  | > 100 |  | > 100 |  |  |  |  |  |  |  | > 100 |  |  |  | > 100 |  | > 100 |  | 
Cn1c2ccccc2c(=O)c2c([N+](=O)[O-])ccc(NCCN)c21 |  |  |  | 16.6 |  | 21.8 |  | 22.8 |  |  |  |  |  | 19.3 |  | 29.4 |  | 27.8 | 24.9 | 
COc1ccc(C(=O)C(C(=O)C(=O)Nc2nccs2)c2ccc(OC)cc2)cc1 (stereo unspecified) |  | > 100 |  | > 100 |  |  |  | > 100 |  |  |  | > 100 |  | > 100 |  | > 100 |  | > 100 |  | 
c1ccc2cc(Cn3c[n+](Cc4ccc5ccccc5c4)c4ccccc43)ccc2c1 |  |  | 1.27 | 2.75 |  |  |  |  | 1.51 | 2.88 |  |  |  |  | 1.67 | 3.4 |  |  | 2.61 | 1.19
CO[C@@]12C[C@H]3[C@@H]([C@@H](O)[C@@H](OC(=O)/C=C/c4ccccc4)[C@@]4(O)C(C)(C)CCC[C@]34C)[C@@H](C)C1=CC(=O)O2 | 3.58 | 20.8 | 12.2 | 31.5 |  |  | 12.4 | 82.9 | 13.4 | 78.8 |  |  | 5.42 | 54.2 |  |  | 16.1 | > 100 | 30.4 | 5.03
O=S(=O)(O)/C(=C\c1ccccc1)c1ccccc1 (tested in a mixture with another compound) |  | > 100 |  | > 100 |  |  |  | > 100 |  | > 100 |  | > 100 |  | > 100 |  | > 100 |  | > 100 | > 100 | 
COC(=O)OCc1ccc2c(c1)C(=O)c1c-2n(CCCBr)c(=O)c2cc([N+](=O)[O-])ccc12 |  |  | > 100 | > 100 | 61.3 | > 100 | > 100 | > 100 | > 100 | > 100 | 45.9 | > 100 | > 100 | > 100 | 31.1 | > 100 | 79 | > 100 | > 100 | > 100
CC(O)C(O)C(O)C(/C=N\Nc1ccccc1)=N/Nc1ccccc1 (stereo unspecified) |  | 57.1 |  | 25.8 |  | 23.3 |  | 24.6 |  | 35.7 |  | 52.3 |  | 27.4 |  | 29.7 |  | 29.1 |  | 
CCCCCC(O)(CCCCC)CCCCCCCCC1=C(O)c2[nH]c(=O)ccc2C(=O)C1=O |  | 25.3 |  | 20.6 |  | 27.8 |  | 24 |  |  |  | 48.1 |  | 31.9 |  | 29.6 |  | 18.2 | 7.06 | 
CC1(C)CC(=O)C(=[N+]=[N-])C(=O)C1 |  | > 100 |  | > 100 |  | > 100 |  |  |  |  |  | > 100 |  | > 100 |  | > 100 |  | > 100 | > 100 | 
CN1CCN(c2ccc(NC3=C(Cl)C(=O)c4ncccc4C3=O)cc2C#N)CC1 |  |  | 1.49 | 3.62 | 2.34 | 7.03 | 13 | 30.9 | 2.99 | 15.5 |  |  | 2.06 | 4.51 | 13.8 | 27.5 | 11 | 23 | 2.36 | 1.09
O=C(NNS(=O)(=O)c1ccc(F)cc1)c1cccnc1Nc1ccc(Cl)cc1Cl |  |  | 29.1 | > 100 | 30 | > 100 | 31.4 | > 100 | 22.9 | 55.4 | 21.1 | > 100 | 16.4 | 50.8 | 38.1 | > 100 | 29.2 | > 100 | > 100 | 38
COc1cc2c([C@@H](OC(=O)c3ccccc3)c3ccc4c(c3)OCO4)nccc2c(OC)c1OC |  | 51 |  | > 100 |  | > 100 |  | > 100 |  |  |  | > 100 |  | > 100 |  | > 100 |  | > 100 | > 100 | 
O=C(O)/C(=C\c1ccccc1Cl)S(=O)(=O)c1ccccc1 |  | > 100 |  | > 100 |  | > 100 |  | > 100 |  |  |  | > 100 |  | > 100 |  | > 100 |  | > 100 | > 100 | 
Cc1cc(C)c2c(SCc3ccc(Cl)cc3Cl)nc(N)nc2n1 |  | > 100 |  | > 100 |  |  |  | 67.5 |  | > 100 |  | > 100 |  | > 100 |  | > 100 |  | > 100 | > 100 | 
c1cc[c]([Sn]([S]c2cccc3cccnc23)([S]c2cccc3cccnc23)[c]2ccccc2)cc1 | 0.158 | 0.465 | 0.14 | 0.365 | 0.17 | 0.352 | 0.228 | 0.643 |  |  | 0.0948 | 0.429 | 0.136 | 0.298 | 0.588 | 2.07 | 0.438 | 1.66 | 0.336 | 0.163
COc1cc(NCC2COc3c(ccc(OC)c3OC)C2=O)c([N+](=O)[O-])cc1OC (stereo unspecified) |  | > 100 |  | > 100 |  |  |  | > 100 |  | > 100 |  | > 100 |  | > 100 |  | > 100 |  | > 100 | > 100 | 
COC(=O)/C(=C/c1ccc(OC)cc1)NC(=O)c1ccccc1 |  | > 100 |  | > 100 |  | > 100 |  | > 100 |  |  |  | > 100 |  |  |  | > 100 |  | > 100 | > 100 | 
C/C1=C\C/C=C(\C)[C@H]2CC(CC/C(C)=C/CC1)[C@](C)(C=O)O2 | 27.1 | 76.8 | 51.1 | > 100 | 49.8 | > 100 | 85.1 | > 100 | 79.8 | > 100 |  |  | > 100 | > 100 | > 100 | > 100 | > 100 | > 100 | > 100 | > 100
